# Experimental data taken from patent US8835472B2, “Compounds, pharmaceutical compositions and uses thereof” (Boehringer Ingelheim International GmbH, priority 2010, dated 2014).
# Target: human ACC2 (Homo sapiens (Human), UniProt O00763)
# Assay: ACC2 assay, spectrophotometric 384 well assay (NADH-linked, coupled lactate dehydrogenase/pyruvate kinase reaction)
# Type: biochemical
# Conditions: hACC2 construct lacking the 128 N-terminal amino acids; 25° C., 340 nm over 15 minutes
# How it was run: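 N-terminally truncated human ACC2 (lacking 128 residues) expressed in insect cells; coupled PK/LDH read-out of ADP as NADH loss at 340 nm, 15 min, 25 °C. Tris pH 7.5 with citrate and KHCO3; 200 μM acetyl-CoA, 500 μM ATP, 1% DMSO.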
# Chain of human ACC2 (O00763 129-2458): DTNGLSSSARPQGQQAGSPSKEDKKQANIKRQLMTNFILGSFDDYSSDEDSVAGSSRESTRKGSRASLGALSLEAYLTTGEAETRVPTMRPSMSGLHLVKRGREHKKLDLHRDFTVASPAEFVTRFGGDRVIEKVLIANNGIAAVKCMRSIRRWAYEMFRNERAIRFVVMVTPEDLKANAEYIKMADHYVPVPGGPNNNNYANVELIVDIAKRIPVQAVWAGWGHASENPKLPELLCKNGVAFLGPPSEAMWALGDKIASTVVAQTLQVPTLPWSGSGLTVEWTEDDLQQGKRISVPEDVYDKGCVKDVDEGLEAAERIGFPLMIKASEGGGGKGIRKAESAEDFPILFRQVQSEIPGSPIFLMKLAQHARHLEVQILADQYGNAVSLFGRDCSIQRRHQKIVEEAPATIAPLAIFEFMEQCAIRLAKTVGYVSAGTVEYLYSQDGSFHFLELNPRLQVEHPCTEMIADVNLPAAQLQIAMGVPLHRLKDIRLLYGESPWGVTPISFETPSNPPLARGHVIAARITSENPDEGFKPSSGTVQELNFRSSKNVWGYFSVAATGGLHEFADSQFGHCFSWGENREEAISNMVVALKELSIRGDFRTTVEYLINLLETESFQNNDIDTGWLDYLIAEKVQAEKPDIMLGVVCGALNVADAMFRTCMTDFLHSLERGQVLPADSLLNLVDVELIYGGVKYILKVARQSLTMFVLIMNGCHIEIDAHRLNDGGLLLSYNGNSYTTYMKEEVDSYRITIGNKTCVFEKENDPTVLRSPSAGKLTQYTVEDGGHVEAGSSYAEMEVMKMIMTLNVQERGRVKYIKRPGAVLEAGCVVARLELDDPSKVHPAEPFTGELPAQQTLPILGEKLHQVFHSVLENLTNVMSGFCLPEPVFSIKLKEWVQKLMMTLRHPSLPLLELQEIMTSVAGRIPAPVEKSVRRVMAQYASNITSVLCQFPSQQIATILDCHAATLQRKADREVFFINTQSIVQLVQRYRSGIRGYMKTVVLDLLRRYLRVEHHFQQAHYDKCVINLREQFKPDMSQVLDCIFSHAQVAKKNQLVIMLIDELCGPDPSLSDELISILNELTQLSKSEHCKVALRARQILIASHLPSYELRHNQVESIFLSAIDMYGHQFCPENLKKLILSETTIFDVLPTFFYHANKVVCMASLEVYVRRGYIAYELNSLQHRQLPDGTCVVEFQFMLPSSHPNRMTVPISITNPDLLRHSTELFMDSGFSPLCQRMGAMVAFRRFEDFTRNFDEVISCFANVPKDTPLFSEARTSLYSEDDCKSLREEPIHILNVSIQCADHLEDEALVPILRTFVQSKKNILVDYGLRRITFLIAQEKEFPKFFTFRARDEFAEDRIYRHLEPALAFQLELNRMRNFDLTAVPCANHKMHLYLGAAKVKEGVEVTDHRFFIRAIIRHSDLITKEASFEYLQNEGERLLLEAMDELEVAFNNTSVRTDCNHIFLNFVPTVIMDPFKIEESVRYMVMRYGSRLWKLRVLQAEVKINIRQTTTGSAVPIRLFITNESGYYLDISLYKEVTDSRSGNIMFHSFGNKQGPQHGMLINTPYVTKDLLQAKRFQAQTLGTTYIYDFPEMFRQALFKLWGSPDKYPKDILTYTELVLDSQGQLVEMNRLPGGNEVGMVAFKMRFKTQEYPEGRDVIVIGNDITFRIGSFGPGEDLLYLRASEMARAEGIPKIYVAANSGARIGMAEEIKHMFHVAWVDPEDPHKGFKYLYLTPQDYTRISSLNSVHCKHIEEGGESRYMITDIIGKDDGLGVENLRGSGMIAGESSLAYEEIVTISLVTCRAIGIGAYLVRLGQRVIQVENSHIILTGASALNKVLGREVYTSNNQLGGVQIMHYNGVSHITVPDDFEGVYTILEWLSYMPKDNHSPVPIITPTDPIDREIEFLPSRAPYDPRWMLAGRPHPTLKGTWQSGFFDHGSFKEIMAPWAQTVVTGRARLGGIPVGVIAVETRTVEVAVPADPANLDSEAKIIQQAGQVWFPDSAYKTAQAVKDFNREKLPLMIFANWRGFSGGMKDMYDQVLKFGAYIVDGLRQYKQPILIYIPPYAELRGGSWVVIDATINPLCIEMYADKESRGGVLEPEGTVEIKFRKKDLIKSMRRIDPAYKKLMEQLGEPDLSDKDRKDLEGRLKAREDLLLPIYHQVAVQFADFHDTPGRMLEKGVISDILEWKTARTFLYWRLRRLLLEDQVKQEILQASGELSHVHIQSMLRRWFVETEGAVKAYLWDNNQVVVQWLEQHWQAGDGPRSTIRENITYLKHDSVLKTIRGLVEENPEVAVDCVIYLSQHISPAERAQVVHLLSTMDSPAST
row,Compound,IC50
1,CCOc1ccc(C#Cc2ccc(CC(C)NC(C)=O)cc2)nn1 (centres unmarked) [Example 2.29],1600 nM
2,CCN(CC)CCOc1ccc(C#Cc2ccc(CC(C)NC(C)=O)cc2)cc1 (centres unmarked) [Example 9.18],14900 nM
3,CCC(C)Oc1nccc(C#Cc2ccc(CC(C)NC(C)=O)cc2)n1 (centres unmarked) [Example 12.7],3600 nM
4,CC(=O)NC(C)Cc1ccc(C#Cc2cccc(Oc3cncnc3)c2)cc1 (centres unmarked) [Example 10.3],1800 nM
5,CC(=O)NC(C)Cc1ccc(C#Cc2ccc(C(=O)N3Cc4ccccc4C3)cc2)cc1 (centres unmarked) [Example 8.12],1500 nM
6,CC(=O)NC(C)Cc1ccc(C#Cc2ccc(CN3CCCC3)cc2)cc1 (centres unmarked) [Example 2.12],6700 nM
7,CC(Cc1ccc(C#Cc2ccc(C3CC3)cn2)cc1)NC(=O)C1CC1 (centres unmarked) [Example 2.67],7200 nM
8,COc1ccc(C#Cc2ccc(CC(C)NC(=O)C3CC3)cc2)cn1 (centres unmarked) [Example 2.64],2800 nM
9,CC(=O)NC(C)Cc1ccc(C#Cc2ccc(N(C)C)cc2)cc1 (centres unmarked) [Example 1.19],1500 nM
10,CC(=O)NC(C)Cc1ccc(C#Cc2ccc3c(ccn3CCO)c2)cc1 (centres unmarked) [Example 1.25],5100 nM
11,CC(=O)NC(C)Cc1ccc(C#Cc2ccnc(N(C)C3CCOC3)n2)cc1 (centres unmarked) [Example 11.31],2000 nM
12,CC(=O)NC(C)Cc1ccc(C#Cc2ccc(C(C)=O)cc2)cc1 (centres unmarked) [Example 2.19],3600 nM
13,"CCOc1ccc(C#Cc2ccc(CCNC(=O)CC)cc2)cc1 [Example 16.1, N-(4-((4-Ethoxyphenyl)ethynyl)phenethyl)propionamide]",1100 nM
14,CCNc1ncc(C#Cc2ccc([C@H](C)NC(C)=O)cc2)cn1 [Example 13.95],2800 nM
15,"COCCN(C)c1ncc(C#Cc2ccc(CC(C)NC(C)=O)cc2)cn1 (centres unmarked) [Example 13.1, N-(1-(4-((2-((2-Methoxyethyl)(methyl)amino)pyrimidin-5-yl)ethynyl)phenyl)propan-2-yl)acetamide]",3200 nM
16,COc1ccc(C#Cc2ccc(CC(C)NC(C)=O)cc2)nc1 (centres unmarked) [Example 3.11],4300 nM
17,CC(=O)NC(C)Cc1ccc(C#Cc2cnc(OCc3ccccn3)nc2)cc1 (centres unmarked) [Example 12.57],1800 nM
18,CCOc1ccc(C#Cc2ccc(CC(C)NC(=O)c3ccon3)cc2)cc1 (centres unmarked) [Example 4.65],1100 nM
19,CC(Cc1ccc(C#Cc2cnc(NCc3ccncc3)nc2)cc1)NC(=O)C1CC1 (centres unmarked) [Example 13.37],2600 nM
20,CC(=O)NC(C)Cc1ccc(C#Cc2ccc(C(=O)N(C)Cc3cccnc3)cc2)cc1 (centres unmarked) [Example 8.14],11500 nM

row,Compound,IC50
1,CC(=O)NC(C)Cc1ccc(C#Cc2ccc3ccccc3c2)cc1 (centres unmarked) [Example 1.6],880 nM
2,CC(=O)NC(C)Cc1ccc(C#Cc2ccnc(N3CCC(c4ccccc4)CC3)n2)cc1 (centres unmarked) [Example 11.40],1100 nM
3,CC(=O)NC(C)Cc1ccc(C#Cc2ccc(OCCC(C)C)nn2)cc1 (centres unmarked) [Example 14.21],3100 nM
4,"CCOc1ccc(C#Cc2ccc(CC(C)N(C)C(C)=O)cc2)cc1 (centres unmarked) [Example 18.1, N-{2-[4-(4-Ethoxy-phenylethynyl)-phenyl]-1-methyl-ethyl}-N-methyl-acetamide]",13700 nM
5,CC(=O)NC(C)Cc1ccc(C#Cc2cnc(NCc3ncccn3)nc2)cc1 (centres unmarked) [Example 13.70],6800 nM
6,COc1ccc(Nc2nccc(C#Cc3ccc(CC(C)NC(C)=O)cc3)n2)cn1 (centres unmarked) [Example 11.5],7200 nM
7,CC(=O)NC(C)Cc1ccc(C#Cc2ccc(C(=O)N3CCN(C)CC3)cc2)cc1 (centres unmarked) [Example 8.46],11300 nM
8,CCOc1cc(C#Cc2ccc(C(C)NC(C)=O)cc2)ncn1 (centres unmarked) [Example 14.4],1500 nM
9,CC(=O)NC(C)Cc1ccc(C#Cc2cnc(OCC(C)(F)F)nc2)cc1 (centres unmarked) [Example 12.43],2600 nM
10,CC(=O)NC(C)Cc1ccc(C#Cc2cccc(N(C)C)n2)cc1 (centres unmarked) [Example 3.13],1700 nM
11,CC(=O)NC(C)Cc1ccc(C#Cc2cccc(C(=O)N3CCC(c4ccncc4)C3)c2)cc1 (centres unmarked) [Example 8.31],14500 nM
12,CC(=O)NC(C)Cc1ccc(C#Cc2cccc(C(=O)N3CCc4ccccc4C3)c2)cc1 (centres unmarked) [Example 8.51],30000 nM
13,COc1ncc(C#Cc2ccc(CC(C)NC(=O)C3CC3)cc2)c(OC)n1 (centres unmarked) [Example 2.58],3700 nM
14,CC(=O)NC(C)Cc1ccc(C#Cc2ccc(C(=O)NCC(F)(F)F)cc2)cc1 (centres unmarked) [Example 1.11],1700 nM
15,CCNC(=O)c1ccc(C#Cc2ccc(CC(C)NC(C)=O)cc2)cc1 (centres unmarked) [Example 8.17],4400 nM
16,CCOc1ccc(C#Cc2ccc(C(C)NC(=O)CO)cc2)cc1 (centres unmarked) [Example 4.48],3900 nM
17,CCOc1ccc(C#Cc2ccc(CC(C)NC(=O)C(=O)N(C)C)cc2)cc1 (centres unmarked) [Example 4.61],10100 nM
18,CCOc1ccc(C#Cc2ccc(CC(C)NC(=O)CNC)cc2)cc1 (centres unmarked) [Example 4.29],2700 nM
19,COCC1CCCN1c1nccc(C#Cc2ccc(CC(C)NC(C)=O)cc2)n1 (centres unmarked) [Example 11.35],2400 nM
20,CC#CCN(CC(C)C)c1nccc(C#Cc2ccc(CC(C)NC(C)=O)cc2)n1 (centres unmarked) [Example 11.25],1800 nM

# The next compounds have a lower IC50 than those just listed; values first:
row,IC50,Compound
1,140 nM,CCCOc1ccc(C#Cc2ccc(C(C)(C)CNC(C)=O)cc2)cc1 [Example 2.36]
2,550 nM,CC(=O)NC(C)Cc1ccc(C#Cc2cccc(OC(C)C)c2)cc1 (centres unmarked) [Example 1.27]
3,640 nM,CCC(C)Nc1ncc(C#Cc2ccc(CC(C)NC(=O)OC)cc2)cn1 (centres unmarked) [Example 13.39]
4,580 nM,CC(C)COc1ccc(C#Cc2ccc([C@H](C)NC(=O)C3CC3)cc2)cc1 [Example 14.48]
5,450 nM,CC(=O)NC(C)Cc1ccc(C#Cc2cnn(-c3ccccc3)c2)cc1 (centres unmarked) [Example 2.79]
6,210 nM,CCCNc1ncc(C#Cc2ccc(CC(C)NC(C)=O)cc2)cn1 (centres unmarked) [Example 13.2]
7,520 nM,CC(=O)NC(C)Cc1ccc(C#Cc2cnc(OC(C)CF)nc2)cc1 (centres unmarked) [Example 12.41]
8,600 nM,CC(=O)NC(C)Cc1ccc(C#Cc2cnc(NCC3CCCC3)nc2)cc1 (centres unmarked) [Example 13.76]
9,60 nM,CC(=O)NC(C)Cc1ccc(C#Cc2ccc(OCCC3CC3)cc2)cc1 (centres unmarked) [Example 9.21]
10,180 nM,CCOc1ccc(C#Cc2ccc(CC(C)NC(=O)C3CCC3)cc2)cc1 (centres unmarked) [Example 4.20]
11,670 nM,CC(=O)NC(C)Cc1ccc(C#Cc2cnc(OCC(C)C)nc2)cc1 (centres unmarked) [Example 12.11]
12,130 nM,CC(=O)NC(C)Cc1ccc(C#Cc2cnc(N3CC4CCCC4C3)nc2)cc1 (centres unmarked) [Example 13.18]
13,90 nM,CCCCOc1ccc(C#Cc2ccc(CC(C)NC(=O)C3CC3)cc2)cc1 (centres unmarked) [Example 14.31]
14,270 nM,CC(=O)NC(C)Cc1ccc(C#Cc2ccc(C(C)(C)C)cc2C#N)cc1 (centres unmarked) [Example 2.11]
15,350 nM,COc1ccc(C#Cc2ccc(CC(C)NC(C)=O)cc2)c(Cl)c1 (centres unmarked) [Example 3.15]
16,730 nM,CC(=O)NCCc1ccc(C#Cc2ccc(OC(C)C)cc2)cc1 [Example 14.35]
17,210 nM,CC(=O)NC(C)Cc1ccc(C#Cc2cnc(N3CCC4(CCC4)C3)nc2)cc1 (centres unmarked) [Example 13.71]
18,350 nM,CSc1ccc(C#Cc2ccc(C(C)NC(C)=O)cc2)cc1 (centres unmarked) [Example 2.101]
19,560 nM,COc1c(F)cc(C#Cc2ccc(CC(C)NC(C)=O)cc2)cc1F (centres unmarked) [Example 3.4]
20,80 nM,CCOc1ccc(C#Cc2ccc(C[C@H](C)NC(C)=O)cc2)cc1 [Example 24.2]

row,IC50,Compound
1,650 nM,CC(=O)NC(C)Cc1ccc(C#Cc2ccc(OCC(C)C)cn2)cc1 (centres unmarked) [Example 23.12]
2,100 nM,CC(=O)NCC(C)(C)c1ccc(C#Cc2ccc(OCC3CC3)cc2)cc1 [Example 2.37]
3,250 nM,CC(=O)NC(C)Cc1ccc(C#Cc2ccc(OC(C)C)cc2)cc1 (centres unmarked) [Example 1.29]
4,810 nM,CCC(CC)Oc1cccc(C#Cc2ccc(CC(C)NC(C)=O)cc2)c1 (centres unmarked) [Example 9.8]
5,120 nM,CC(=O)NC(C)Cc1ccc(C#Cc2ccc(OC3CCC3)cc2)cc1 (centres unmarked) [Example 14.6]
6,150 nM,CC(Cc1ccc(C#Cc2ccc(OC3CC3)cc2)cc1)NC(=O)C1CC1 (centres unmarked) [Example 14.30]
7,680 nM,CCOc1ccc(C#Cc2ccc(CC(C)NC(=O)CCC#N)cc2)cc1 (centres unmarked) [Example 4.13]
8,180 nM,CC(=O)NC(C)Cc1ccc(C#Cc2cnc(NCC3CCC3)nc2)cc1 (centres unmarked) [Example 13.17]
9,530 nM,CCN(C)c1nccc(C#Cc2ccc(CC(C)NC(C)=O)cc2)n1 (centres unmarked) [Example 11.4]
10,350 nM,CC(=O)NC(C)Cc1ccc(C#Cc2ccnc(N(C)CCC(C)(C)C)n2)cc1 (centres unmarked) [Example 11.32]
11,120 nM,CC(=O)NC(C)Cc1ccc(C#Cc2ccc(Oc3ccccc3)cc2)cc1 (centres unmarked) [Example 2.16]
12,810 nM,CC(=O)NC(C)Cc1ccc(C#Cc2ccc(C)cc2)cc1 (centres unmarked) [Example 1.2]
13,690 nM,CC(=O)NC(C)Cc1ccc(C#Cc2ccc(-c3ccc(Cl)cc3)nn2)cc1 (centres unmarked) [Example 1.3]
14,680 nM,CC(=O)NC(C)Cc1ccc(C#Cc2ccnc(N(C)CC(F)(F)F)n2)cc1 (centres unmarked) [Example 11.33]
15,240 nM,CC(=O)N[C@@H](C)c1ccc(C#Cc2cnc(OC3CCC3)nc2)cc1 [Example 12.62]
16,200 nM,CC(=O)NC(C)Cc1ccc(C#Cc2cnc(-c3ccc(Cl)cc3)cn2)cc1 (centres unmarked) [Example 1.14]
17,550 nM,CC(=O)NC(C)Cc1ccc(C#Cc2ccc(OCC3CCOCC3)cc2)cc1 (centres unmarked) [Example 9.31]
18,400 nM,CCOc1ccc(C#Cc2ccc(C(C)NC(C)=O)cc2)cc1 (centres unmarked) [Example 14.51]
19,200 nM,CC(=O)NC(C)Cc1ccc(C#Cc2ccc(OCC3CC3C)cc2)cc1 (centres unmarked) [Example 9.24]
20,460 nM,CCN(CC)c1nccc(C#Cc2ccc(CC(C)NC(C)=O)cc2)n1 (centres unmarked) [Example 11.49]
